Reference: PMC6273991, “Cytotoxic Labdane Diterpenes from Hedychium ellipticum Buch.-Ham. ex Sm” (Molecules, 2016)
In brackets after ≈: the same amount, converted by molar mass. Several values for one entry are separate records, joined by “and”; a condition that tells them apart may be missing. Equal values may be shown once. Read-outs that look alike come from different tables or passages of the source.

Experiments:
[1] = tested on: Mycobacterium tuberculosis H37Ra; assay: Antimycobacterial activity, green fluorescent protein microplate assay (GFPMA); assay type: cell-based; settings: M. tuberculosis H37Ra, MIC = lowest concentration effecting inhibition of ≥90%; for MIC: Mycobacterium tuberculosis, read-out: Anti-TB (MIC)
Protocol: The antimycobacterial activity was assessed against Mycobacterium tuberculosis H37Ra using the green fluorescent protein microplate assay (GFPMA). The lowest drug concentration effecting and inhibition of ≥90% was considered the MIC.

in vitro = settings: African green monkey, Vero cells (African green monkey kidney, non-cancerous)
[2] = tested on: human oral cavity cancer cell (KB); assay: Cytotoxicity, resazurin microplate assay (REMA), KB; settings: for IC50: Homo sapiens, KB, 120 h, read-out: Cytotoxicity (IC50) KB, KB cells, REMA, 5 days; for Selectivity Index KB: IC50 on Vero cells divided by IC50 for KB cells; for Cytotoxicity (IC50) KB: KB cells, REMA, 5 days
[3] = tested on: human breast cancer cell (MCF7); assay: Cytotoxicity, resazurin microplate assay (REMA), MCF7; settings: for Cytotoxicity (IC50) MCF7: MCF7 cells, REMA, 5 days; for IC50: Homo sapiens, MCF7, 120 h, read-out: Cytotoxicity (IC50) MCF7; for Selectivity Index MCF7: IC50 on Vero cells divided by IC50 for MCF7 cells
[4] = tested on: human small cell lung cancer cell (NCI-H187); assay: Cytotoxicity, resazurin microplate assay (REMA), NCI-H187; settings: for IC50: Homo sapiens, NCI-H187, 120 h, read-out: Cytotoxicity (IC50) NCI-H187; for Selectivity Index NCI-H187: IC50 on Vero cells divided by IC50 for NCI-H187 cells
P388 cells = tested on: P388 cells; design: method as in PMID 9873721; settings: cited from earlier work
B16 cells = tested on: B16 cells; design: method as in PMID 9873721; settings: cited from earlier work
SNU-1 cells = tested on: SNU-1 cells; design: method as in PMID 9873721; settings: cited from earlier work
NCI-H187 cell = settings: cited from earlier work
[5] = tested on: African green monkey kidney (Vero) cell line; assay: Cytotoxicity against non-cancerous cells, GFP detection; settings: 4 days, Undetectable = at concentration ≤50 μg/mL
V-79 cell = tested on: V-79 cell; design: method as in PMID 3222377, PMID 21106458; settings: cited from earlier work
KB cell = tested on: KB cell; design: method as in PMID 18932088; settings: cited from earlier work
A-549 cell line = tested on: A-549 cell line; design: method as in PMID 21106458; settings: read-out: LC50 A-549 cell line; cited from earlier work
SK-N-SH cells = tested on: SK-N-SH cells; design: method as in PMID 21106458; settings: read-out: LC50 SK-N-SH cells; cited from earlier work
MCF-7 cells = tested on: MCF-7 cells; design: method as in PMID 21106458; settings: read-out: LC50 MCF-7 cells; cited from earlier work
HeLa cells = tested on: HeLa cells; design: method as in PMID 21106458; settings: cited from earlier work

Structure (SMILES)	Anti-TB (MIC) [1]	IC50 at 4 days (in vitro)	IC50 [2] [µg/mL]	IC50 ([2]; value in parentheses) [µM]	Selectivity Index KB [2]	IC50 [4]	Selectivity Index NCI-H187 [4]	MIC [1] [µg/mL]	IC50 [3]	other results
C=C1CC[C@H]2C(C)(C)CCC[C@]2(C)[C@H]1CC=C(C=O)CC(=O)O (stereo in doubt) [Compound 9, zerumin A]	Inactive	49.5 µg/mL and 155 µM	47.4	149	1.0	33.5 µg/mL and 105 µM	1.5			Cytotoxicity (IC50) MCF7 [3]: Inactive
C=C1CC[C@H]2C(C)(C)CCC[C@]2(C)[C@H]1/C=C/c1ccoc1 [Compound 1, coronarin E]		25.4 µg/mL and 89.2 µM	9.67	34	2.6	18.1 µg/mL and 63.5 µM	1.4	12.5 (≈ 43.9 µM)		IC50 P388 cells (P388 cells): 10.0 µg/mL (≈ 35.2 µM); IC50 B16 cells (B16 cells): 18.8 µg/mL (≈ 66.1 µM); IC50 SNU-1 cells (SNU-1 cells): 8.0 µg/mL (≈ 28.1 µM); IC50 (NCI-H187 cell): 49.7 µM; Cytotoxicity (IC50) MCF7 [3]: Inactive
C=C1CC[C@H]2C(C)(C)CCC[C@]2(C)[C@H]1/C=C/C(C)=O [Compound 2, (E)-15,16-bisnorlabda-8(17),11-dien-13-one]	Inactive	> 192 µM	37	142		21.7 µg/mL and 83.2 µM			49.2 µg/mL and 189 µM	melting point: 146 to 147 °C; Cytotoxicity (IC50) Vero Cell [5]: Undetectable ^2
C=C1CC[C@H]2C(C)(C)CCC[C@]2(C)[C@H]1/C=C/C(=O)O [Compound 3, (E)-14,15,16-trinorlabda-8(17),11-dien-13-oic acid]	Inactive	> 191 µM				49.2 µg/mL and 188 µM				Cytotoxicity (IC50) KB [2]: Inactive; Cytotoxicity (IC50) MCF7 [3]: Inactive; Cytotoxicity (IC50) Vero Cell [5]: Undetectable ^2
C=C1CC[C@H]2C(C)(C)CCC[C@]2(C)[C@H]1/C=C/C1=CCOC1=O [Compound 4, villosin]	Inactive	> 166 µM	4.1	13.7		0.12 µg/mL and 400 nM	>416.7		8.5 µg/mL and 28.3 µM	Cytotoxicity (IC50) Vero Cell [5]: Undetectable ^2
C=C1CC[C@H]2C(C)(C)CCC[C@]2(C)[C@H]1C/C=C(/C=O)CC=O [Compound 5, (E)-labda-8(17),12-dien-15,16-dial]	Inactive	22.5 µg/mL and 74.5 µM	29.1	96	0.8	11.2 µg/mL and 36.9 µM	2.0		22.6 µg/mL and 74.6 µM	IC50 V-79 cell (V-79 cell): 18.5 µg/mL (≈ 61.2 µM); Selectivity Index MCF7 [3]: 1.0
C=C1CCC2C(C)(C)CCC[C@]2(C)[C@H]1/C=C/C1=CC(OC)OC1=O (stereo partly drawn) [Compound 6, 15-methoxylabda-8(17),11,13-trien-15,16-olide]	Inactive	45.6 µg/mL and 138 µM	23.8	72.1	1.9	0.9 µg/mL and 2.72 µM	50.7		49.2 µg/mL and 149 µM	Selectivity Index MCF7 [3]: 0.9
C=C1CC[C@H]2C(C)(C)CCC[C@]2(C)[C@H]1/C=C/C1=CC(=O)OC1O (stereo partly drawn) [Compound 7, 16-hydroxylabda-8(17),11,13-trien-15,16-olide]		5.37 µg/mL and 16.2 µM	0.92	2.75	5.9	0.72 µg/mL and 2.18 µM	7.5	6.25 (≈ 19.8 µM)	2.89 µg/mL and 8.75 µM	Cytotoxicity (IC50) KB [2]: 0.91 µg/mL; Selectivity Index MCF7 [3]: 1.9
C=C1CC[C@H]2C(C)(C)CCC[C@]2(C)[C@H]1C/C=C1\CC(O)OC1=O (stereo partly drawn) [Compound 8, coronarin D]	Inactive	48.9 µg/mL and 154 µM	40	126	1.2	25.7 µg/mL and 80.8 µM	1.9		16.2 µg/mL and 51 µM	IC50 NCI-H187 cell, previous reported (NCI-H187 cell): 9.8 µg/mL (≈ 30.8 µM); IC50 V-79 cell (V-79 cell): 17.0 µg/mL (≈ 53.4 µM); IC50 KB cell, previous reported (KB cell): 14.7 µg/mL (≈ 46.2 µM); CC50 (A-549 cell line): 14 µM; CC50 (SK-N-SH cells): 32 µM; CC50 (MCF-7 cells): 21.9 µM; LC50 (HeLa cells): 60.6 µM; Selectivity Index MCF7 [3]: 3.0
C=C1CC[C@H]2C(C)(C)CCC[C@]2(C)[C@H]1C[C@@H](O)C1=CC(O)OC1=O (stereo partly drawn) [Compound 10, zerumin B]	Inactive	24.7 µg/mL and 73.8 µM	13.1	39.3	1.9	6.14 µg/mL and 18.4 µM	4.0		13.3 µg/mL and 39.7 µM	Selectivity Index MCF7 [3]: 1.9
COc1cccc2c1C(=O)c1c(O)c3c(c(O)c1C2=O)C[C@@](O)(C(=O)CO)C[C@@H]3O[C@H]1C[C@H](N)[C@H](O)[C@H](C)O1 [Doxorubicin, reference compound]			0.117	0.22		0.053 µg/mL and 100 nM			0.663 µg/mL and 1.22 µM	
Cc1c2ccncc2c(C)c2c1[nH]c1ccccc12 [Ellipticine, reference compound]		1.34 µg/mL and 5.46 µM	0.302	1.23	4.5	0.44 µg/mL and 1.79 µM	3.1			
CC[C@@H](CO)NCCN[C@@H](CC)CO [ethambutol, reference compound]								0.234 to 0.469 (≈ 1.15 to 2.3 µM)		
NNC(=O)c1ccncc1 [isoniazid, reference compound]								0.0234 to 0.0468 (≈ 0.171 to 0.341 µM)		
CC1COc2c(N3CCN(C)CC3)c(F)cc3c(=O)c(C(=O)O)cn1c23 (stereo not drawn) [oflaxacin, reference compound]	0.391 to 0.781 µg/mL									
CO[C@H]1/C=C/O[C@@]2(C)Oc3c(C)c(O)c4c(O)c(c(/C=N/N5CCN(C)CC5)c(O)c4c3C2=O)NC(=O)/C(C)=C\C=C\[C@H](C)[C@H](O)[C@@H](C)[C@@H](O)[C@@H](C)[C@H](OC(C)=O)[C@@H]1C [rifampicine, reference compound]								0.00312 to 0.025 (≈ 0.00379 to 0.0304 µM)		
[H]/N=C(/N)N[C@H]1[C@H](O)[C@@H](O)[C@H](O[C@@H]2O[C@@H](C)[C@](O)(C=O)[C@H]2O[C@@H]2O[C@@H](CO)[C@H](O)[C@@H](O)[C@@H]2NC)[C@@H](N/C(N)=N\[H])[C@@H]1O [streptomycin, reference compound]								0.156 to 0.313 (≈ 0.268 to 0.538 µM)		
